In ChEMBL document CHEMBL4004883, “Biologically active perspective synthesis of heteroannulated 8-nitroquinolines with green chemistry approach” (Bioorg Med Chem Lett, 2017):
Values after ≈ are worked out from the molar mass of the structure shown.

What was measured:
Staphylococcus aureus [1] = experiment: Antibacterial activity against Staphylococcus aureus MTCC 96 at 100 ug incubated for 24 hrs under dark condition by agar well diffusion method; assay type: functional; conditions: MTCC 96, 24 h, read-out: IZ
Staphylococcus aureus [2] = experiment: Antibacterial activity against Staphylococcus aureus MTCC 96 incubated for 24 hrs under dark condition by microwell dilution method; assay type: functional; conditions: MTCC 96, 24 h
Bacillus subtilis [3] = experiment: Antibacterial activity against Bacillus subtilis MTCC 121 at 100 ug incubated for 24 hrs under dark condition by agar well diffusion method; assay type: functional; conditions: MTCC 121, 24 h, read-out: IZ
Bacillus subtilis [4] = experiment: Antibacterial activity against Bacillus subtilis MTCC 121 incubated for 24 hrs under dark condition by microwell dilution method; assay type: functional; conditions: MTCC 121, 24 h
Escherichia coli [5] = experiment: Antibacterial activity against Escherichia coli MTCC 1652 at 100 ug incubated for 24 hrs under dark condition by agar well diffusion method; assay type: functional; conditions: MTCC 1652, 24 h, read-out: IZ
Escherichia coli [6] = experiment: Antibacterial activity against Escherichia coli MTCC 1652 incubated for 24 hrs under dark condition by microwell dilution method; assay type: functional; conditions: MTCC 1652, 24 h
Pseudomonas aeruginosa [7] = experiment: Antibacterial activity against Pseudomonas aeruginosa MTCC 102 at 100 ug incubated for 24 hrs under dark condition by agar well diffusion method; assay type: functional; conditions: MTCC 102, 24 h, read-out: IZ
Pseudomonas aeruginosa [8] = experiment: Antibacterial activity against Pseudomonas aeruginosa MTCC 102 incubated for 24 hrs under dark condition by microwell dilution method; assay type: functional; conditions: MTCC 102, 24 h
[9] = Antioxidant activity assessed as DPPH radical scavenging activity after 20 mins by UV/VIS Spectrophotometric method; assay type: functional
[10] = Antioxidant activity assessed as assessed as ferric ion reducing activity by measuring absorbance at 700 nm at 20 ug/ml after 20 mins by spectrophotometric method; assay type: functional
[11] = Antioxidant activity assessed as total antioxidant capacity measured as ascorbic acid equivalents at 20 ug/ml after 90 mins by phosphomolybdenum method; assay type: functional
MCF7 = experiment: Cytotoxicity against human MCF7 cells assessed as decrease in cell viability after 48 hrs by MTT assay; assay type: functional, cell-based; conditions: MCF7, 48 h
A549 = experiment: Cytotoxicity against human A549 cells assessed as decrease in cell viability after 48 hrs by MTT assay; assay type: functional, cell-based; conditions: A549, 48 h
[12] = Antioxidant activity assessed as assessed as ferric ion reducing activity by measuring absorbance at 700 nm at 60 ug/ml after 20 mins by spectrophotometric method; assay type: functional
[13] = Antioxidant activity assessed as assessed as ferric ion reducing activity by measuring absorbance at 700 nm at 100 ug/ml after 20 mins by spectrophotometric method; assay type: functional
[14] = Antioxidant activity assessed as total antioxidant capacity measured as ascorbic acid equivalents at 60 ug/ml after 90 mins by phosphomolybdenum method; assay type: functional
[15] = Antioxidant activity assessed as total antioxidant capacity measured as ascorbic acid equivalents at 100 ug/ml after 90 mins by phosphomolybdenum method; assay type: functional

Row | SMILES | zone of inhibition at 100 µg/disc (Staphylococcus aureus [1]) [mm] | MIC (Staphylococcus aureus [2]) [mg/L] | zone of inhibition at 100 µg/disc (Bacillus subtilis [3]) [mm] | MIC (Bacillus subtilis [4]) [mg/L] | zone of inhibition at 100 µg/disc (Escherichia coli [5]) [mm] | MIC (Escherichia coli [6]) [mg/L] | zone of inhibition at 100 µg/disc (Pseudomonas aeruginosa [7]) [mm] | MIC (Pseudomonas aeruginosa [8]) [mg/L] | IC50 [9] [mg/L] | OD [10] | Activity [11] [µgequiv/ml] | IC50 (MCF7) [µM] | IC50 (A549) [µM] | OD [12] | OD [13] | Activity [14] [µgequiv/ml] | Activity [15] [µgequiv/ml]
1 | Cc1ccc(C2C3CNc4c(cccc4[N+](=O)[O-])C3=NN2c2ccccc2)cc1 (stereo not given) | 12 | 50 (≈ 130 µM) | 12 | 50 (≈ 130 µM) | 10 | 80.5 (≈ 209 µM) | 8 | 200 (≈ 520 µM) | 185.06 (≈ 481 µM) | 0.082 | 3.33 | 72.8 | 45.8 | 0.096 | 0.145 | 5.23 | 10.2
2 | N#CC1=C(N)OC2=C(CNc3c2cc(Cl)cc3[N+](=O)[O-])C1c1ccc(Cl)cc1 (stereo not given) | 15 | 17.5 (≈ 42.1 µM) | 18 | 17.5 (≈ 42.1 µM) | 18 | 25.5 (≈ 61.4 µM) | 16 | 55.5 (≈ 134 µM) | 132.65 (≈ 319 µM) | 0.093 | 3.67 | 18 | 25.5 | 0.125 | 0.156 | 7.08 | 13
3 | COc1ccc(C2C3CNc4c(cccc4[N+](=O)[O-])C3=NN2c2ccccc2)cc1 (stereo not given) | 15 | 17.5 (≈ 43.7 µM) | 17 | 20 (≈ 49.9 µM) | 14 | 42.5 (≈ 106 µM) | 10 | 200 (≈ 499 µM) | 138.8 (≈ 347 µM) | 0.091 | 4.95 | 31.3 | 40.2 | 0.134 | 0.192 | 10.5 | 14.3
4 | CC1(C)S[C@@H]2[C@H](NC(=O)[C@H](N)c3ccccc3)C(=O)N2[C@H]1C(=O)O [AMPICILLIN] | 24 | 2.5 (≈ 7.15 µM) | 30 | 2.5 (≈ 7.15 µM) | 24 | 8.5 (≈ 24.3 µM) | 22 | 18.5 (≈ 52.9 µM) |  |  |  |  |  |  |  |  | 
5 | COc1ccc(C2C(C#N)=C(N)OC3=C2CNc2c3cccc2[N+](=O)[O-])cc1OC (stereo not given) | 14 | 40 (≈ 98.4 µM) | 15 | 20 (≈ 49.2 µM) | 12 | 80.5 (≈ 198 µM) | 13 | 150 (≈ 369 µM) | 124.38 (≈ 306 µM) | 0.078 | 4.04 | 56.3 | 50.6 | 0.111 | 0.157 | 9.51 | 13.7
6 | COc1ccc(C2C(C#N)=C(N)OC3=C2CNc2c3cccc2[N+](=O)[O-])c(OC)c1 (stereo not given) | 14 | 40 (≈ 98.4 µM) | 15 | 20 (≈ 49.2 µM) | 15 | 42.5 (≈ 105 µM) | 13 | 150 (≈ 369 µM) | 122.13 (≈ 301 µM) | 0.08 | 4.79 | 51.2 | 44.6 | 0.112 | 0.162 | 9.89 | 14.2
7 | Cc1cc(C(C)(C)C)c(O)c(C(C)(C)C)c1 |  |  |  |  |  |  |  |  |  | 0.329 |  |  |  | 0.448 | 0.612 |  | 
8 | O=[N+]([O-])c1cccc2c1NCC1C2=NN(c2ccccc2)C1c1ccccc1 (stereo not given) | 8 | 60 (≈ 162 µM) | 8 | 60 (≈ 162 µM) | 12 | 60 (≈ 162 µM) | 14 | 150 (≈ 405 µM) | 146.85 (≈ 396 µM) | 0.075 | 5.18 | 53.4 | 59.8 | 0.08 | 0.096 | 10.8 | 14.9
9 | O=[N+]([O-])c1cccc2c1NCC1C2=NN(c2ccccc2)C1c1ccc(F)cc1 (stereo not given) | 20 | 10 (≈ 25.7 µM) | 18 | 12.5 (≈ 32.2 µM) | 21 | 17 (≈ 43.8 µM) | 18 | 55.5 (≈ 143 µM) | 205.13 (≈ 528 µM) | 0.092 | 4.02 | 46 | 23.2 | 0.1 | 0.112 | 7.36 | 11.2
10 | O=[N+]([O-])c1cc(Cl)cc2c1NCC1C2=NNC1c1ccc(Cl)cc1 (stereo not given) | 13 | 55 (≈ 151 µM) | 10 | 60 (≈ 165 µM) | 8 | 97.5 (≈ 268 µM) | 14 | 100 (≈ 275 µM) | 169.33 (≈ 466 µM) | 0.072 | 3.47 | 78.5 | 95.1 | 0.083 | 0.091 | 6.27 | 11.8
11 | CCOc1ccc(C2C3CNc4c(cccc4[N+](=O)[O-])C3=NN2c2ccccc2)c(OCC)c1 (stereo not given) | 19 | 10 (≈ 21.8 µM) | 23 | 7.5 (≈ 16.4 µM) | 19 | 34 (≈ 74.2 µM) | 18 | 55.5 (≈ 121 µM) | 170.8 (≈ 373 µM) | 0.068 | 2.46 | 65.7 | 50.9 | 0.085 | 0.098 | 5.75 | 9.47
12 | N#CC1=C(N)OC2=C(CNc3c2cccc3[N+](=O)[O-])C1c1ccc(Br)cc1 (stereo not given) | 20 | 10 (≈ 23.5 µM) | 20 | 12.5 (≈ 29.4 µM) | 18 | 25.5 (≈ 60 µM) | 20 | 37 (≈ 87 µM) | 125.08 (≈ 294 µM) | 0.071 | 1.5 | 24.7 | 34.8 | 0.095 | 0.134 | 2.98 | 5.67
13 | Cc1ccc(C2C(C#N)=C(N)OC3=C2CNc2c3cccc2[N+](=O)[O-])cc1 (stereo not given) | 13 | 55 (≈ 153 µM) | 12 | 50 (≈ 139 µM) | 18 | 25.5 (≈ 70.8 µM) | 15 | 55.5 (≈ 154 µM) | 183.1 (≈ 508 µM) | 0.09 | 1.82 | 34.1 | 56.3 | 0.111 | 0.163 | 4.43 | 8.15
14 | O=[N+]([O-])c1cccc2c1NCC1C2=NN(c2ccccc2)C1c1ccc(Cl)cc1 (stereo not given) | 17 | 15 (≈ 37.1 µM) | 16 | 15 (≈ 37.1 µM) | 17 | 34 (≈ 84 µM) | 13 | 100 (≈ 247 µM) | 202.18 (≈ 499 µM) | 0.082 | 4.12 | 41.4 | 28.7 | 0.09 | 0.101 | 6.17 | 10.4
15 | O=[N+]([O-])c1cc(Cl)cc2c1NCC1C2=NNC1c1ccc(F)cc1 (stereo not given) | 12 | 50 (≈ 144 µM) | 12 | 50 (≈ 144 µM) | 12 | 80.5 (≈ 232 µM) | 8 | 200 (≈ 577 µM) | 155.12 (≈ 447 µM) | 0.08 | 1.21 | 98.7 | 63.6 | 0.088 | 0.098 | 2.49 | 5.03
16 | O=[N+]([O-])c1cccc2c1NCC1C2=NN(c2ccccc2)C1c1ccc(Br)cc1 (stereo not given) | 16 | 15 (≈ 33.4 µM) | 19 | 12.5 (≈ 27.8 µM) | 18 | 25.5 (≈ 56.8 µM) | 16 | 55.5 (≈ 124 µM) | 226.97 (≈ 505 µM) | 0.09 | 6.12 | 34.7 | 29.6 | 0.096 | 0.107 | 13.7 | 18.2
17 | O=C1O[C@H]([C@@H](O)CO)C(O)=C1O [ASCORBIC ACID] |  |  |  |  |  |  |  |  | 28.02 (≈ 159 µM) |  |  |  |  |  |  |  | 
